Calls of active or inactive are those of the source.
Legend:
[1] = target: Leucine-rich repeat serine/threonine-protein kinase 2 (Homo sapiens) (UniProt Q5S007); settings: HEK293, 0.03 to 3 uM
Description: Inhibition of GFP-tagged LRRK2 expressed in HEK293 cells assessed as inhibition of Ser935 autophosphorylation at 0.03 to 3 uM after 90 mins by immunoblotting method

[2] = target: Leucine-rich repeat serine/threonine-protein kinase 2 (Homo sapiens) (UniProt Q5S007); settings: 0.03 to 3 uM
Description: Inhibition of LRRK2 in human lymphoblastoid cells assessed as inhibition of Ser910 autophosphorylation at 0.03 to 3 uM after 90 mins by immunoblot method

[3] = target: Leucine-rich repeat serine/threonine-protein kinase 2 (Homo sapiens) (UniProt Q5S007); settings: 0.03 to 3 uM; remark: listed apart in the source
Description: Inhibition of LRRK2 in human lymphoblastoid cells assessed as inhibition of Ser935 autophosphorylation at 0.03 to 3 uM after 90 mins by immunoblot method

[4] = target: Leucine-rich repeat serine/threonine-protein kinase 2 (Homo sapiens) (UniProt Q5S007); settings: HEK293, 0.03 to 3 uM; remark: listed apart in the source
Description: Inhibition of GFP-tagged LRRK2 expressed in HEK293 cells assessed as inhibition of Ser910 autophosphorylation at 0.03 to 3 uM after 90 mins by immunoblotting method

Measured: inhibition

Sequence of Leucine-rich repeat serine/threonine-protein kinase 2 (Homo sapiens) (Q5S007 whole entry): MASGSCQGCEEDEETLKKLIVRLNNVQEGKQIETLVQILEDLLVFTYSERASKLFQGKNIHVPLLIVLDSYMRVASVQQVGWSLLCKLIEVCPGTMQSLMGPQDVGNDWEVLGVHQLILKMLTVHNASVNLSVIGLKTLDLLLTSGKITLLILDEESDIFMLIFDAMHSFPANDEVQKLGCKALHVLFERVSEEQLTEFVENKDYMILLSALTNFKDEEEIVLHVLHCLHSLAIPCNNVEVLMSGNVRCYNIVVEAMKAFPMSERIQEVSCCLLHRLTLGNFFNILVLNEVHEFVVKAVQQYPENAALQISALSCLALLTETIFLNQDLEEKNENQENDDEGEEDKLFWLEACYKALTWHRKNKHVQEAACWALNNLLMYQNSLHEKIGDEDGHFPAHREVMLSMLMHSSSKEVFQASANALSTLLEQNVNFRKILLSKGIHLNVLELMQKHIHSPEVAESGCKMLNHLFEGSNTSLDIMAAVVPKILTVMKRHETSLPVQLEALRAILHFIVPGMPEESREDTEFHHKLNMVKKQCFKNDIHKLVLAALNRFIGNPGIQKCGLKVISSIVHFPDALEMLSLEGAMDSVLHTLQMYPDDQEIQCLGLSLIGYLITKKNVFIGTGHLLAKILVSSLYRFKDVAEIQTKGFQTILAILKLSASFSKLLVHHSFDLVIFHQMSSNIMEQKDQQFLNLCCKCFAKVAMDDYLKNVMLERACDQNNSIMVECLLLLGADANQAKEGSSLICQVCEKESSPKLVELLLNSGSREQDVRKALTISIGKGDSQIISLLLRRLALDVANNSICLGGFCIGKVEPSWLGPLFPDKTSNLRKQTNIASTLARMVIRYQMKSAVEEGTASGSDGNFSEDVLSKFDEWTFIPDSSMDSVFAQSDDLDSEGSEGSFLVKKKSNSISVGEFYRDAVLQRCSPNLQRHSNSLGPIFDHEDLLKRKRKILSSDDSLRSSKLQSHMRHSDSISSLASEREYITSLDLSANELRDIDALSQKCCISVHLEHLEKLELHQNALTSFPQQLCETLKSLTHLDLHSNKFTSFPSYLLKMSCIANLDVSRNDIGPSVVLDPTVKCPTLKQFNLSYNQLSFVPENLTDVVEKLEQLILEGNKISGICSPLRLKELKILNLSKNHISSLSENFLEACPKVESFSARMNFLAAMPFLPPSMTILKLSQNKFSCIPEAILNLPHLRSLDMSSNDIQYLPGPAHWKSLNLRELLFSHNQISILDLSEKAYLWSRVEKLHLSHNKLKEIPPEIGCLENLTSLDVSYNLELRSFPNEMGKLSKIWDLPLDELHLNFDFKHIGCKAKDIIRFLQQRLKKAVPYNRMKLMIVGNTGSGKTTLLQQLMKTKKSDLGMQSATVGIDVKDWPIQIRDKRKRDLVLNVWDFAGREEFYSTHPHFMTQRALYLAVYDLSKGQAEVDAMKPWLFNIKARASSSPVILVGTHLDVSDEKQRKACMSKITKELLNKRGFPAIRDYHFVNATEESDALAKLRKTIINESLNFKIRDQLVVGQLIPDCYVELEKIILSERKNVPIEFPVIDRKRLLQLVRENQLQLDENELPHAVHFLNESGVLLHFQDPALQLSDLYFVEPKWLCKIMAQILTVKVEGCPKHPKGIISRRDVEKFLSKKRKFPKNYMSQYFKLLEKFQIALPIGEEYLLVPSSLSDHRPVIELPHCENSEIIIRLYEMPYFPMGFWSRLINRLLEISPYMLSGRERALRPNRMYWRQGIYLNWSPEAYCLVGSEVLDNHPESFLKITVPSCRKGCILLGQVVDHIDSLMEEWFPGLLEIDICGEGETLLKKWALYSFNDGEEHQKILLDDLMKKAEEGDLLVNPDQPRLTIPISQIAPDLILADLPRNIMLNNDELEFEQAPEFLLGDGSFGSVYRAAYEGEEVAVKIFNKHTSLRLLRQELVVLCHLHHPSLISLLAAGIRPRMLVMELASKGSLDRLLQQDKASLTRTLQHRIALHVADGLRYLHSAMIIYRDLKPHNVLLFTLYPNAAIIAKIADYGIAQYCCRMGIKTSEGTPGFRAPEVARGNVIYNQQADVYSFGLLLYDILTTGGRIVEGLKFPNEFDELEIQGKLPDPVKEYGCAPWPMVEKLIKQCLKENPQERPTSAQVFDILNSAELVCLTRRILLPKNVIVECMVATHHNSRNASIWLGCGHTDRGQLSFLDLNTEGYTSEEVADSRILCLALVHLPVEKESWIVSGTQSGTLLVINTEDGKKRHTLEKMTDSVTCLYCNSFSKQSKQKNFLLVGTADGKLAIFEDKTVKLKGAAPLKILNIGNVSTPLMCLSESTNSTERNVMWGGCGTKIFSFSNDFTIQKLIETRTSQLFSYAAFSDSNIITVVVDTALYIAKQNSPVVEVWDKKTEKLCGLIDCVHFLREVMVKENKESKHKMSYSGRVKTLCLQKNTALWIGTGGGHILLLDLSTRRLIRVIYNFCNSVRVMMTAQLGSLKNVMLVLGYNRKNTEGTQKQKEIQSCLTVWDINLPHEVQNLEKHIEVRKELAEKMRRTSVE

COc1cc(C(=O)N2CCC(N3CCN(C)CC3)CC2)ccc1Nc1ncc2c(n1)N(C)c1ccccc1C(=O)N2C
active: [1] | [2] | [3] | [4]

From ChEMBL document CHEMBL2203081 (Bioorg Med Chem Lett, 2012)
